Square brackets hold non-standard residues; d marks the D form. Peptide text beside a SMILES is read from it. NMeY = CN[C@@H](Cc1ccc(O)cc1)C(=O)O; NMeT = CN[C@H](C(=O)O)[C@@H](C)O; NMeL = CN[C@@H](CC(C)C)C(=O)O; Sar = CNCC(=O)O
Tests used:
[1] = Apparent permeability of the compound at 50 uM after 5 hrs by PAMPA method; assay type: physicochemical
[2] = Apparent permeability from apical to basolateral side in human Caco2 cells by LC-MS analysis; assay type: ADME, cell-based; details: Caco-2

| SMILES | Papp at 5 h, 50 µM [1] [×10⁻⁶ cm/s] | Papp A→B [2] [×10⁻⁶ cm/s] |
| --- | --- | --- |
| CC(C)C[C@@H]1NC(=O)[C@H](C(C)C)NC(=O)[C@H](Cc2c[nH]c3ccccc23)NC(=O)[C@H](Cc2ccccc2)NC(=O)[C@H](Cc2ccccc2)NC(=O)[C@@H]2CCCN2C1=O (cyclo(FFWVLP)) | 0.37 | 0.24 |
| CC(C)C[C@@H]1NC(=O)[C@H](Cc2ccccc2)NC(=O)CN(C)C(=O)[C@H](CC(C)C)N(C)C(=O)[C@H](Cc2ccc(O)cc2)NC(=O)[C@@H]2CCCN2C1=O (cyclo(FLPY[NMeL][Sar])) | 0.1 | 0.1 |
| CC(C)C[C@@H]1NC(=O)[C@H](Cc2ccccc2)NC(=O)[C@H]([C@@H](C)O)NC(=O)CNC(=O)[C@H]([C@@H](C)O)NC(=O)[C@H](Cc2ccc(O)cc2)NC1=O (cyclo(FLYTGT)) | 0.02 | 0.04 |
| CC(C)C[C@@H]1NC(=O)[C@H](Cc2ccccc2)NC(=O)[C@H]([C@@H](C)O)N(C)C(=O)CN(C)C(=O)[C@H]([C@@H](C)O)NC(=O)[C@H](Cc2ccc(O)cc2)NC1=O (cyclo(FLYT[Sar][NMeT])) | 0.01 | 0.1 |
| CC[C@H](C)[C@@H]1NC(=O)[C@H](Cc2ccc(O)cc2)NC(=O)[C@H](Cc2ccccc2)NC(=O)CNC(=O)[C@H](C(C)C)NC(=O)CNC1=O (cyclo(FYIGVG)) | 0.01 | 0.06 |
| CC(C)C[C@@H]1NC(=O)CNC(=O)[C@@H]2CCCN2C(=O)[C@H](Cc2ccc(O)cc2)NC(=O)[C@H](Cc2ccccc2)NC(=O)[C@@H]2CCCN2C1=O (cyclo(FYPGLP)) | 0.01 | 0.11 |

Further lines, results first:

| Papp at 5 h, 50 µM [1] [×10⁻⁶ cm/s] | Papp A→B [2] [×10⁻⁶ cm/s] | SMILES |
| --- | --- | --- |
| 0.02 | 0.17 | CC(C)C[C@@H]1NC(=O)[C@H](Cc2ccccc2)NC(=O)[C@H]([C@@H](C)O)NC(=O)CN(C)C(=O)[C@H]([C@@H](C)O)NC(=O)[C@H](Cc2ccc(O)cc2)NC1=O (cyclo(FLYT[Sar]T)) |
| 0.04 | 0.11 | CC(C)C[C@@H]1NC(=O)[C@H](Cc2ccccc2)NC(=O)[C@H]([C@@H](C)O)NC(=O)CNC(=O)[C@H](C(C)C)NC(=O)[C@H](Cc2ccc(O)cc2)NC1=O (cyclo(FLYVGT)) |
| 1.29 | 9.13 | CC(C)C[C@@H]1NC(=O)[C@@H](CC(C)C)NC(=O)[C@H](CC(C)C)NC(=O)[C@H](Cc2ccc(O)cc2)N(C)C(=O)[C@H]2CCCN2C(=O)[C@H](CC(C)C)NC1=O (cyclo(LL[dP][NMeY]L[dL])) |
| 0.76 | 7.83 | CC(C)C[C@@H]1NC(=O)[C@H](Cc2ccc(O)cc2)NC(=O)[C@H]2CCCN2C(=O)[C@H](CC(C)C)NC(=O)[C@H](CC(C)C)N(C)C(=O)[C@@H](CC(C)C)NC1=O (cyclo(L[dL][NMeL]L[dP]Y)) |
